Experimental data taken from patent US9540418B2, “Polypeptide specifically binding to rare earth nanoparticles and use thereof” (University of Science and Technology of China, priority 2012, dated 2017).
Ends that are not written are not given here.

Key:
[1] = Competitive inhibition of REOB-1 phage binding to Nd2O3 by polypeptides (IC50); details: 100 μg Nd2O3, REOB-1 phages at a titer of 108, 2 hr incubation; read-out: IC50 (μM)* of polypeptides competitively inhibiting the binding of REOB-1 phages to Nd2O3 nanoparticles
Method: 100 μg Nd2O3 was mixed with the polypeptides, RE-1, AP-1, RE-2, RE-3, RE-4, RE-5, RE-6, RE-7, RE-8, RE-9, RE-10, etc., respectively. To the mixture, REOB-1 phages at a titer of 108 were added. After 2 hr of incubation, the number of REOB-1 phages binding to Nd2O3 was measured. IC50 value indicated the relative activity of various polypeptides competitively inhibiting the binding of REOB-1 phages to Nd2O3 nanoparticles. The polypeptide RE-1 and its analogues had different binding ability to Nd2O3.

HeLa cells [2] = assay: Effect of RE-1 analogues on cytotoxicity induced by UCN, UCP (MTT, PI staining); type: cell-based; details: 1 mg/mL, 24 hr
Method: (§1) MTT cell vitality assay is performed as follows: The cells to which samples have been added are cultured for 24 hr, and then 0.5 mg/mL MTT solution is added and cultured for 4 hr. The MTT solution in the well is discharged, and then 200 μL DMSO is added, followed by gently shaking the plate on a shaking table for 10 min. Detection is performed using microplate reader (ELX800, purchased from BIO-TEK) at a wavelength of 570 nm.
(§2) PI staining assay is performed as follows: The cells to which samples have been added are cultured for 24 hr, and then to the culture Hoechst 33342 (10 mM, purchased from Sigma, USA, Catalog #: B2261) and PI (Propidium Iodide) (10 mM, purchased from Beyotime Biotechnology, Catalog #: ST511) are added for 10 min of staining. Then, the cells are detected and photographed under a fluorescence microscope (Olympus IX71, purchased from Olympus). The number of the cells counted by this assay was 500.
(§3) HeLa cells were inoculated into 96-well cell culturing plate at a density of about 1-2×10^4 cells/well, and cultured overnight for further use. At first, the medium was replaced with fresh DMEM medium, and then 1 mg/mL UCN, UCP, UCN+PEG (containing 10 mg PEG), UCN+RE-1, UCP, UCP+RE-1, UCN+RE-2, UCN+RE-3, UCN+RE-5, UCP+RE-2, UCP+RE-3, or UCP+RE-5 were added, respectively. After culturing for 24 hr, MTT cell viability assay and PI staining were performed to detect the mortality of the cells.

HeLa-LC3 cells [3] = assay: RE-1 analogues blocking nanophosphor-induced autophagy (LC3 aggregates and vacuoles); type: cell-based; details: 24 hr; for inhibition of GFP-LC3 dot-like aggregation and cytoplasm vacuolation induced by UCN: 100 μg/mL UCN coated or mixed; for rank of ability after coating UCN to inhibit cell autophagy induced by UCN: 100 μg/mL
Method: UCN and UCP coated with RE-1 analogues RE-2, RE-3, or RE-5 were prepared as follows: 50 μg or 10 μg RE-1 analogues RE-2, RE-3, or RE-5 was mixed with 100 μg UCN or UCP, respectively, incubated at 37° C. for 2 hr, centrifuged at 12000 rpm, and then washed with water 3 times to remove the excess and unbound peptides. The resultant precipitate was resuspended in 100 μL water.
HeLa-LC3 cells were inoculated into a 96-well cell culture plate at a density of about 1-2×10^4 cells/well, and cultured overnight for further use. At first, the medium was replaced with fresh DMEM medium, and then 100 μg/mL UCN, UCN+RE-1, UCN+RE-2, UCN+RE-3, or UCN+RE-5 was added. An equal volume of PBS was used as blank. A mixture of 100 μg/mL UCN and 10 mg/mL PEG was used as negative control. A mixture of 100 mM trehalose and 50 μg RE-1 was used as positive control. After culturing for 24 hr, a fluorescence microscope was used to observe, image, and count.
HeLa-LC3 cells were inoculated into a 96-well cell culture plate at a density of about 1-2×10^4 cells/well, and cultured overnight for further use. At first, the medium was replaced with fresh DMEM medium, and then 100 μg/mL UCP, UCP+RE-1, UCP+RE-2, UCP+RE-3, or UCP+RE-5 was added. An equal volume of PBS was used as blank. After culturing for 24 hr, a fluorescence microscope was used to observe, image, and count.
The ability to induce cell autophagy was estimated by determining the numbers of LC3 aggregates and vacuoles.

LC3 II in HeLa cells [4] = assay: Western blotting of LC3 in HeLa cells; type: cell-based; details: 100 μg/mL UCP+AP-1
Method: (§4) Western blotting is performed as follows: After an incubation of 24 h, the cells are collected and lysed with lysis buffer (purchased from Beyotime Biotechnology, China). The lysate is boiled in boiling water for 10 min, subjected to 15% SDS-PAGE, and then transferred to nylon membrane (purchased from Amersham Inc.) by a wet transfer. In the Western blotting, Anti-LC3 (Light Chain 3 Protein Antibody, purchased from Novus Inc., Catalog #: NB 100-2220) is used as primary antibody; GAPDH (purchased from Millipore Inc.) is used as internal reference; and Horseradish peroxidase (HRP) conjugated goat anti-rabbit IgG (H+L) (Goat Anti-Rabbit IgG (H+L), HRP Conjugate) (purchased from Promega Inc.) is used as secondary antibody.
HeLa cells were inoculated into a 24-well cell culturing plate at a density of about 3-5×10^4 cells/well, and cultured overnight for further use. At first, the medium was replaced with fresh DMEM medium, and then 100 μg/mL UCN or UCN+RE-1 was added. An equal volume of PBS was used as blank. A mixture of 100 μg/mL UCN and 10 mg/mL PEG was used as negative control. 100 mM trehalose was used as positive control. Then, western blotting assay was performed.
HeLa cells were inoculated into a 24-well cell culturing plate at a density of about 3-5×10^4 cells/well, and cultured overnight for further use. At first, the medium was replaced with fresh DMEM medium, and then 100 μg/mL UCP or UCP+RE-1 was added. An equal volume of PBS was used as blank. A mixture of 100 μg/mL UCP+AP-1 and a mixture of 400 μg/mL TiO2+AP-1 were used as negative control. 400 μg/mL TiO2 was used as positive control. Then, western blotting assay was performed.

mice liver [5] = assay: Liver damage in mice livers (HE staining); type: in vivo, Balb/c mice; details: UCP+RE-1 or UCP+AP-1, tail vein, 24 hr
Method: (§5) Balb/c mice (purchased from SLAC Laboratory Animal (Shanghai, China), 6 weeks old, and weighed 20 g when used) were bred in a sterile housing, and then 300 μg (dosage: 15 mg/kg) UCN, UCN+PEG (containing 10 mg PEG), UCN+RE-1, UCP, UCP+RE-1, or UCP+AP-1 was injected through tail vein. An equal volume of normal saline was injected as a control. After 24 hr, the livers of the mice were removed and subjected to western blotting assay.
(§6) The mice livers obtained as described in Example 21 were in situ fixed with 2.5% glutaral-dimethyl arsine buffer (pH 7.4) at 4° C. for 1 hr, then fixed with 2% osmium tetroxide at room temperature for 1 hr, and then dehydrated with ethanol gradients. Then, the cell samples were embedded in paraffin. The embedded cell samples were cut into ultrathin slices, which were stained with HE (hematoxylin-eosin), and observed and imaged under fluorescence microscope.

[6] = system: LC3 type II in mice liver; assay: Western blotting of LC3 in mice livers after tail vein injection; type: in vivo; details: UCP+AP-1, tail vein, 24 hr
Method: as §4, §5

mice liver [7] = assay: Autophagosome formation in mice livers by transmission electron microscope; type: in vivo, Balb/c mice; details: RE-1 with UCN, PEG with UCN, AP-1 with UCP
Method: as §5
as §6, with “into epoxy resin (EPON812).” for “in paraffin.”, “uranyl acetate and lead citrate,” for “HE (hematoxylin-eosin),”, “a transmission electron microscope (JEOL-1230, JEOL, Japan).” for “fluorescence microscope.”

HeLa-LC3 cells [8] = assay: RE-1-RGD effect on UCN-induced autophagy (LC3 dot-like aggregates and vacuoles); type: cell-based; details: 100 μg/mL RE-1-RGD-coated UCN, 24 hr
Method: UCN coated with RE-1-RGD was prepared as follows: 50 μg RE-1-RGD and 100 μg UCN were mixed, incubated at 37° C. for 2 hr, and then centrifuged at 12000 rpm. The resultant precipitate was washed with water for 3 times to remove the excess and unbound RE-1-RGD peptides. Then, the precipitate was resuspended in 100 μL water for further use.
HeLa-LC3 cells were inoculated into a 96-well cell culture plate at a density of about 1-2×10^4 cells/well, and cultured overnight for further use. At first, the medium was replaced with fresh DMEM medium, and then 100 μg/mL UCN, UCN+RE-1, and UCN+RE-1-RGD were added, respectively. An equal volume of PBS was used as blank. After culturing for 24 hr, LC3 dot-like aggregates and vacuoles in the cells were observed and imaged under a fluorescence microscope.

HeLa cells [9] = assay: RE-1-RGD effect on cytotoxicity induced by UCN (MTT, PI staining); type: cell-based; details: 1 mg/mL RE-1-RGD-coated UCN, 24 hr, MTT and PI staining
Method: as §1, §2
as §3, with “UCN,” for “UCN, UCP, UCN+PEG (containing 10 mg PEG),”, “and UCN+RE-1-RGD” for “UCP, UCP+RE-1, UCN+RE-2, UCN+RE-3, UCN+RE-5, UCP+RE-2, UCP+RE-3, or UCP+RE-5”

LC3 II in HeLa cells [10] = assay: RE-1-RGD effect on UCN-induced autophagy (western blotting LC3 II); type: cell-based; details: 100 μg/mL RE-1-RGD-coated UCN
Method: as §4
HeLa cells were inoculated into 24-well cell culture plate at a density of about 3-5×10^4 cells/well, and cultured overnight for further use. At first, the medium was replaced with fresh DMEM medium, and then 100 μg/mL UCN, UCN+PEG (containing 10 mg PEG), UCN+RE-1, and UCN+RE-1-RGD were added, respectively. An equal volume of PBS was used as blank. 100 mM trehalose was used as positive control. Then, western blotting assay was performed.

HeLa cells [11] = assay: Adherence of UCN coated with RE-1 or RE-1-RGD to HeLa cells; type: cell-based; details: 37° C., 2 hr, versus uncoated
Method: HeLa cells were cultured on a coverslip (22 mm×22 mm), which was then placed into a 6-well plate with the cells facing upward or downward, and the coverslip was supported by a sterilized glass cube (2 mm×2 mm×2 mm). Then, 4 mL of DMEM medium containing the rare-earth upconversion nanophosphors coated with RE-1 or RE-1-RGD or without any coating was slowly poured into the 6-well plate, such that the cells were fully immersed in the medium, and the coverslip was just located at the middle of the height of the liquid. The cells were placed into a cell incubator at 37° C. for 2 hr, and then washed with PBS 3 times. The UCNs adhered to the surfaces of the cells were observed under a fluorescence microscope (Olympus IX71, Olympus, Japan) equipped with a 980-nm infrared laser (MDL-980 nm 1 W, Changchun New Industries Optoelectronics Tech. Co., Ltd, China).

## AATARSPWICG [RE-4, RE-1 2C→A]
[1]
  IC50: 270 ± 8.67 µM

## ACAARSPWICG [RE-5, RE-1 3T→A]
[1]
  IC50: 689 ± 8.38 µM
HeLa cells [2]
  inhibitory effect of coating on cytotoxicity induced by UCN and UCP: RE-1>RE-3>RE-5
HeLa-LC3 cells [3]
  inhibition of GFP-LC3 dot-like aggregation and cytoplasm vacuolation induced by UCN: did not inhibit
  rank of ability after coating UCN to inhibit cell autophagy induced by UCN: RE-1>RE-3>RE-5

## ACNATLPHQCG [AP-1, same terminal amino acids but irrelevant amino acids therebetween, reference compound]
[1]
  IC50: > 5000 µM
LC3 II in HeLa cells [4]
  inhibition of ability of nanophosphor to induce cell autophagy by AP-1: not for AP-1
Mice liver [5]
  effect of coating on liver damage induced by UCP: showed no such effect
[6]
  inhibition of ability of UCP to induce autophagy in liver: could not inhibit
Mice liver [7]
  inhibition of autophagosome formation induced by nanophosphors (UCN, UCP) in liver: did not

## ACTAASPWICG [RE-6, RE-1 5R→A]
[1]
  IC50: 78.4 ± 7.07 µM

## ACTARAPWICG [RE-7, RE-1 65→A as printed]
[1]
  IC50: 83.9 ± 6.65 µM

## ACTARSAWICG [RE-8, RE-1 7P→A]
[1]
  IC50: 440 ± 8.48 µM

## ACTARSPAICG [RE-9, RE-1 8W→A]
[1]
  IC50: 86.7 ± 8.07 µM

## ACTARSPWACG [RE-10, RE-1 9I→A]
[1]
  IC50: 71.5 ± 5.1 µM

## ACWPATRISCG [RE-3, order of 7 middle amino acids of RE-1 disrupted]
[1]
  IC50: 64.3 ± 2.33 µM
HeLa cells [2]
  inhibitory effect of coating on cytotoxicity induced by UCN and UCP: RE-1>RE-3>RE-5
HeLa-LC3 cells [3]
  inhibition of GFP-LC3 dot-like aggregation and cytoplasm vacuolation induced by UCN: exhibited an inhibitory effect
  rank of ability after coating UCN to inhibit cell autophagy induced by UCN: RE-1>RE-3>RE-5
HeLa-LC3 cells [3]; 100 μg/mL UCN coated
  reduction of GFP-LC3 dot-like aggregation induced by UCN: 21%
  reduction of cytoplasm vacuolation induced by UCN: 50%

## CRGDCGGACTARSPWICG [RE-1-RGD, RE-1 and tumor cell-targeting peptide RGD]
HeLa-LC3 cells [8]
  LC3 dot-like aggregates and vacuoles in cells versus UCN group: significantly increased
HeLa cells [9]
  cell mortality versus group treated with UCN: significantly higher
LC3 II in HeLa cells [10]
  LC3 II in the cells: significantly increased
HeLa cells [11]
  number of coated upconversion nanophosphors adhered to the surface of the cells: significantly higher

## TARSPWI [RE-2, TARSPWI]
[1]
  IC50: 1307 ± 6.5 µM
HeLa cells [2]
  inhibitory effect of coating on cytotoxicity induced by UCN and UCP: nearly showed no inhibitory effect
HeLa-LC3 cells [3]
  inhibition of GFP-LC3 dot-like aggregation and cytoplasm vacuolation induced by UCN: did not inhibit
  rank of ability after coating UCN to inhibit cell autophagy induced by UCN: substantially no inhibitory effect
